Test results: ChEMBL document CHEMBL3988442, “University of Dundee, Small-Polar-MMV Screening Library” (2021)
“And” between values parts separate entries of the source, which are not always exact repeats. Equal values may be shown once.

What was measured:
Lysine--tRNA ligase = Lysine--tRNA ligase (Plasmodium falciparum (isolate 3D7), UniProt Q8IDJ8); test: Pf-KRS-1 (Lysyl-RNA Synthetase-1, KRS-1, cytosolic KRS) from Plasmodium falciparum. Inhibitor assay, 384 well plate, luminescence read.; format: functional
Histidine--tRNA ligase [1] = target: T1, Histidine--tRNA ligase (Trypanosoma cruzi (strain CL Brener), UniProt Q4DA54); test: Trypanosoma cruzi histidyl tRNA synthetase (Tc-HisRS); format: functional
T1 sequence (Q4DA54 whole entry): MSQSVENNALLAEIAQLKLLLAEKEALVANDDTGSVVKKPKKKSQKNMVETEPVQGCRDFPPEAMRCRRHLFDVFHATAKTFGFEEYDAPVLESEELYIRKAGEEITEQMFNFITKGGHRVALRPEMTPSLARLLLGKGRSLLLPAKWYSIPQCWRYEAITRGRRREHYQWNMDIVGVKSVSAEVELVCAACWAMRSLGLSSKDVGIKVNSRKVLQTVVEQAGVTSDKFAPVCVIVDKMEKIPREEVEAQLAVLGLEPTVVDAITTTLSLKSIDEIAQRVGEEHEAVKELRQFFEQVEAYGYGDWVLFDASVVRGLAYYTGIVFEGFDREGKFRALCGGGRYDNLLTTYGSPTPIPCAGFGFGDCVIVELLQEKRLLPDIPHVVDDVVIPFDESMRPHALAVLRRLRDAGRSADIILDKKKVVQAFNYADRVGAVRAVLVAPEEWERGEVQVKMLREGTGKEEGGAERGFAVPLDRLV

Histidine--tRNA ligase [2] = target: T2, Histidine--tRNA ligase (Leishmania infantum, UniProt A4I591); test: Leishmania infantum Histidine tRNA synthetase (LdHisRS); format: functional
T2 sequence (A4I591 whole entry): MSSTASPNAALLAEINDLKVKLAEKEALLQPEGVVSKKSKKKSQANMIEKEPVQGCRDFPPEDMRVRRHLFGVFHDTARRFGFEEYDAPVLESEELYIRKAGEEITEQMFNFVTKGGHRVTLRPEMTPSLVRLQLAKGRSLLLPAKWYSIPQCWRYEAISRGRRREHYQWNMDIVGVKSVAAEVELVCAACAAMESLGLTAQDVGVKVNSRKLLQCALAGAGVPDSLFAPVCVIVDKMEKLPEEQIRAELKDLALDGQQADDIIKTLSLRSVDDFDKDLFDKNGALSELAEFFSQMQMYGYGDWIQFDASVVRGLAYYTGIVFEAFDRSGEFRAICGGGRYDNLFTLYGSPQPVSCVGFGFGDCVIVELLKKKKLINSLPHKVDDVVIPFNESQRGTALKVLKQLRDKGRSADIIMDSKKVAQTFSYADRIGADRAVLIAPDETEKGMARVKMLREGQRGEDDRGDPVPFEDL

[3] = target: T3, Coenzyme A biosynthesis bifunctional protein CoaBC (Mycobacterium tuberculosis (strain ATCC 25618 / H37Rv), UniProt P9WNZ1); test: Biomol Green assay for MtCoaBC inhibitor, OD650 read; format: functional
T3 sequence (P9WNZ1 whole entry): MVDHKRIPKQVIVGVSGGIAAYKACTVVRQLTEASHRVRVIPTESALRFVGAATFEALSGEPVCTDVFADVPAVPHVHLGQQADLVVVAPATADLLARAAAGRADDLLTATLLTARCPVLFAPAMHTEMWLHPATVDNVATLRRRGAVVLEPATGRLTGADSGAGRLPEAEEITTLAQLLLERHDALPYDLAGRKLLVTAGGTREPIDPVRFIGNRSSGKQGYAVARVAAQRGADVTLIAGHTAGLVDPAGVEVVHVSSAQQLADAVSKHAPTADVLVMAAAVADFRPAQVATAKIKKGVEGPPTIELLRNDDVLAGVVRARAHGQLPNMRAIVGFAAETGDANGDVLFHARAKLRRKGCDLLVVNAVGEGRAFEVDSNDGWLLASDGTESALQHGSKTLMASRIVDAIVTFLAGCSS

Plasmodium falciparum = test: Calibr Malaria Delayed Death Assay SOP; format: functional, organism-based; settings: for IC50: Plasmodium falciparum
ClpP1P2 = ClpP1P2 (Mycobacterium tuberculosis (strain ATCC 25618 / H37Rv), UniProt P9WPC3+P9WPC5); test: in vitro assay to detect presence of AMC directly proportional to the activity of ClpP1P2. GHDDI collaboration.; format: functional
[4] = microbe, parasite or virus in culture; settings: Mycobacterium tuberculosis, 96 h, read-out: pIC50 (converted)
[5] = microbe, parasite or virus in culture; settings: Mycobacterium tuberculosis, 72 h, read-out: pIC50 (converted)
[6] = In vitro enzyme assay to detect hydrolysis of chlorophenol red-beta-D-[…] directly proportional to the number of Toxoplasma stably expressing beta-galactosidase; format: functional, organism-based, Toxoplasma gondii; settings: Toxoplasma gondii

Lysine--tRNA ligase, sequence (Q8IDJ8 whole entry): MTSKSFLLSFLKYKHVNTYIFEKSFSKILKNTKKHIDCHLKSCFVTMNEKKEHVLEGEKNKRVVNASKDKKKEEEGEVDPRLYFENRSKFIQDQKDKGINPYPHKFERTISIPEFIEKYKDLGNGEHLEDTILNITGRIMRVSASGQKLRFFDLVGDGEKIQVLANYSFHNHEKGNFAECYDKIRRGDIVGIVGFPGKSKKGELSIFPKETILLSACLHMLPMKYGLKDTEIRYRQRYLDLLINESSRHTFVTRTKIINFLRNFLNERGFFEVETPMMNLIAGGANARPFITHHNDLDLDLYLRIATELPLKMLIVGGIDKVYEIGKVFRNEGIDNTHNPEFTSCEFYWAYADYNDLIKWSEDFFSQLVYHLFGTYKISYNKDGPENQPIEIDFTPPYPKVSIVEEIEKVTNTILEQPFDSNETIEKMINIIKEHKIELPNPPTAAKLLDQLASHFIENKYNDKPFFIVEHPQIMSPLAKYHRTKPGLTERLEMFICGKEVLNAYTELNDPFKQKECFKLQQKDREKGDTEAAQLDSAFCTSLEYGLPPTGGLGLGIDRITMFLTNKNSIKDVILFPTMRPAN
ClpP1P2, sequence (P9WPC5 whole entry): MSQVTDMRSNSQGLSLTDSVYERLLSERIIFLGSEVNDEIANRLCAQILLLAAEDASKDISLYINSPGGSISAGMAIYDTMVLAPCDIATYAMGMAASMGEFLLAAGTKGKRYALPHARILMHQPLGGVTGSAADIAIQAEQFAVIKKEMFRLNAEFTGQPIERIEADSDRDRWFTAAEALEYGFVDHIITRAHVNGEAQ
ClpP1P2, sequence (P9WPC3 whole entry): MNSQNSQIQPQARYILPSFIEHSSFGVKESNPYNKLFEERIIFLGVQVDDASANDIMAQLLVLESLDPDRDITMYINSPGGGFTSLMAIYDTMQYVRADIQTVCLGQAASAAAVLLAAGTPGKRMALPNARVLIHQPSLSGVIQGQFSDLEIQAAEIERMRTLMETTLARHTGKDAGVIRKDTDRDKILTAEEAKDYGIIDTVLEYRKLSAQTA

SMILES	IC50 (Histidine--tRNA ligase [1])	IC50 (Histidine--tRNA ligase [2])	other results
Cn1cc(NC(=O)N2CCCC2c2ccccn2)ccc1=O (stereo unspecified)	9.32 µM and 9.24 µM	2.71 µM and 1.57 µM and 2.82 µM and 1.51 µM	IC50 (Lysine--tRNA ligase): > 50.1 µM
COc1cccn(CC(=O)N2CCCC3(CCOCC3)C2)c1=O	5.31 µM and 6.94 µM	> 100 µM	
NC1CCN(C2CCN(c3ccc(-c4ccco4)cc3)CC2)CC1	34.3 µM and 40.4 µM	23 µM and 22.9 µM	
COc1cccn(CC(=O)N2CCCC3(CCCCC3)C2)c1=O	4.24 µM and 4.44 µM	8.99 µM and 8.08 µM	
OCCNc1cc(-c2nccnc2N2CCCC2)c2cc[nH]c2n1	32.6 µM and 31 µM	16.2 µM and 14.9 µM	
Nc1nccc(C2CN(Cc3ccc(-c4ccccc4C(=O)O)o3)C2)n1	32.2 µM and 50.5 µM	25.3 µM and 25.4 µM	
CCCn1cc(NC(=O)c2ccc(S(C)(=O)=O)cc2)ccc1=O	21.5 µM and 19.6 µM	1.71 µM and 0.847 µM and 0.944 µM and 1.37 µM	IC50 (Lysine--tRNA ligase): > 50.1 µM
Cc1cc(=O)n(C)cc1NC(=O)NCc1cccc(F)c1	9.43 µM and 9.23 µM	6.8 µM and 6.63 µM	IC50 (Lysine--tRNA ligase): > 50.1 µM
Cc1ccc(N2CCC3(CC2)COCCN(c2nccs2)C3)nn1	96.2 µM and 98.9 µM	33.4 µM and 28.7 µM	
COc1cccn(CC(=O)N2CCCC3(CCCO3)CC2)c1=O (stereo unspecified)	> 100 µM	> 100 µM	
Cn1cc(NC(=O)CCc2ccsc2)ccc1=O	13.3 µM and 13.9 µM	12.7 µM and 13.3 µM	
Cn1cc(NC(=O)NCc2ccoc2)ccc1=O	7.29 µM and 8.84 µM	3.44 µM and 3.04 µM	IC50 (Lysine--tRNA ligase): > 50.1 µM
Cn1cc(NC(=O)NCc2ccsc2)ccc1=O	4.72 µM and 5.06 µM	2.07 µM and 2.41 µM and 2.32 µM and 2.42 µM	IC50 (Lysine--tRNA ligase): > 50.1 µM
CNc1cc(-c2ccccc2CN)c2cc[nH]c2n1	22.6 µM and 37.8 µM	10.6 µM and 10.1 µM	IC50 [3]: > 30.2 µM
NCC1Cc2cc(-c3nccc(N4CCC(O)CC4)n3)cc(F)c2O1 (stereo unspecified)	20.1 µM and 18.7 µM	31.2 µM and 28.1 µM	IC50 [3]: > 30.2 µM; pIC50 (Plasmodium falciparum): 6.277; IC50 (Plasmodium falciparum): 0.569 µM
CNc1cc(-c2ccc(COCCN)cc2)c2cc[nH]c2n1	38.8 µM and 97 µM		IC50 (ClpP1P2): > 100 µM
c1ccc(-c2noc(CNC3CCCN(c4cccnn4)C3)n2)nc1 (stereo unspecified)	> 100 µM	34.2 µM and 44.7 µM	
Cc1cc(=O)n(C)cc1NC(=O)Cc1ccc(C(F)(F)F)cc1	5.22 µM and 5.49 µM	6.69 µM and 5.43 µM	
Cc1cc(=O)n(C)cc1NC(=O)Cc1cc(F)ccc1F	21.1 µM	1.69 µM and 2.09 µM and 0.814 µM and 0.806 µM	IC50 (Lysine--tRNA ligase): > 50.1 µM
NCC1Cc2cc(-c3nccc(N4CCC(O)CC4)n3)cc(Cl)c2O1 (stereo unspecified)	48.1 µM and 22.3 µM	20.9 µM and 21 µM	IC50 [3]: > 30.2 µM; pIC50 (Plasmodium falciparum): 6.303; IC50 (Plasmodium falciparum): 0.545 µM
CN(Cc1ccsc1)C(=O)Nc1ccc(=O)n(C)c1	4.99 µM and 3.42 µM	4.2 µM and 4.05 µM	IC50 (Lysine--tRNA ligase): > 50.1 µM
CCCn1cc(NC(=O)c2ccc(NC(=O)NC3CC3)cc2)ccc1=O	4.75 µM and 4.19 µM	5.84 µM and 7.08 µM	
CCCn1cc(NC(=O)c2ccc(S(=O)(=O)CC)cc2)ccc1=O	2.37 µM and 2.75 µM	1.47 µM and 1.05 µM and 2.81 µM and 2.06 µM	IC50 (Lysine--tRNA ligase): > 50.1 µM
CCCn1cc(NC(=O)c2ccncc2)ccc1=O	5.29 µM and 4 µM	3.64 µM and 3.18 µM	IC50 (Lysine--tRNA ligase): > 50.1 µM
COc1cccn(CC(=O)N2CCC3(CCNCC3)C2)c1=O	6.27 µM and 15.2 µM	3.66 µM and 3.72 µM	IC50 (Lysine--tRNA ligase): > 50.1 µM

SMILES	IC50 (Histidine--tRNA ligase [1])	IC50 (Histidine--tRNA ligase [2])	other results
COc1ccc(CNC(=O)Nc2ccc(=O)n(C)c2)cc1	5.8 µM and 5.68 µM	1.74 µM and 2.25 µM and 1.76 µM and 2.08 µM	IC50 (Lysine--tRNA ligase): > 50.1 µM
c1ccc(N2CCCC3(COCCN(c4nccs4)C3)C2)nc1 (stereo unspecified)	73.9 µM and 71.8 µM		IC50 [3]: > 30.2 µM
CC(C)(C)c1nc(CNC2CCCN(c3cccnn3)C2)no1 (stereo unspecified)	39.6 µM and 34.1 µM		IC50 [4]: > 50.1 µM; IC50 [5]: > 50.1 µM
NCC1CCN(C2CCN(c3ccc(-c4ccco4)cc3)CC2)C1 (stereo unspecified)	25.1 µM and 18.7 µM	25.6 µM and 22.1 µM	IC50 [6]: 3.86 µM; pIC50 (Plasmodium falciparum): 6.504; IC50 (Plasmodium falciparum): 0.343 µM; IC50 [5]: 11.7 µM
O=C(NCc1cnn2cccnc12)c1cccc(CC2CCNCC2)c1	39.3 µM and 21.3 µM	17.6 µM and 18.9 µM	IC50 [4]: 45.6 µM; IC50 [5]: 41.5 µM
Cc1nc(C)n(CC2CCCN2Cc2nc(C)c3ccccc3n2)n1 (stereo unspecified)	30.1 µM and 20 µM	31 µM and 34.3 µM	
CNC1CCN(C2CCN(c3ccc(-c4ccco4)cc3)CC2)CC1	65.7 µM and 43.8 µM		IC50 [4]: > 50.1 µM; IC50 [5]: 24.6 µM
Fc1cc(F)cc(CN2CCC(c3cc4ncccc4cn3)CC2)c1	> 100 µM		
c1ccc(-c2nc(CNC3CCCN(c4cccnn4)C3)no2)cc1 (stereo unspecified)	> 100 µM		
COC(=O)c1ccc(CNC(=O)Nc2ccc(=O)n(C)c2)cc1	3.6 µM and 3.34 µM	1.41 µM and 1.19 µM and 3.2 µM and 2.68 µM	
Cc1ccc(N2CCOCC3(CCCN(c4ncc(F)cn4)C3)C2)nn1 (stereo unspecified)	> 100 µM		
Cn1cc(NC(=O)N2CCCC2c2cccnc2)ccc1=O (stereo unspecified)	5.39 µM and 6.42 µM	5.84 µM and 5.74 µM	
Cc1cc(CNC2CCCN(c3cccnn3)C2)no1 (stereo unspecified)	> 100 µM		
CCN(CC)CCNC(=O)CCc1c(C)nn(-c2ccc(Cl)cc2)c1C	> 100 µM		
CNc1cc(-c2cccc(CN)c2)c2cc[nH]c2n1	27.7 µM and 26.3 µM	25.1 µM and 23.5 µM	IC50 (ClpP1P2): > 100 µM
Cc1nc2ccccc2nc1CN(C)CC1CCCN1c1cccnn1 (stereo unspecified)	90.5 µM and 50.8 µM		
Cn1nc(Cn2ccnc2)c2c1CN(c1nccs1)C2	88.3 µM and 86.2 µM	20.5 µM and 14.5 µM	
CCN1CCC2(CCN(c3ncccn3)CC2)C1=O	> 100 µM		
Cc1ccc(N2CCCC3(COCCN(c4nccs4)C3)C2)nn1 (stereo unspecified)	> 100 µM		
Cc1nc(CN(C)CC2CCCN2c2cccnn2)nc2ccccc12 (stereo unspecified)	30.3 µM and 27.2 µM	11.8 µM and 14.8 µM	IC50 [4]: > 50.1 µM; IC50 [5]: 10.8 µM
COc1ccc(C)cc1CN1CCC(c2cc3ncccc3cn2)CC1.Cl	14.5 µM and 14.6 µM	17.6 µM and 23.6 µM	pIC50 (Plasmodium falciparum): 6.624; IC50 (Plasmodium falciparum): 0.264 µM; IC50 [4]: 25.8 µM; IC50 [5]: 19.4 µM
O=C(O)c1ccc(Cc2cccc(F)c2)nc1	> 100 µM		
Cc1ccc(N2Cc3c(CN(C)C)nn(C)c3C2)nn1	> 100 µM		
CCCn1cc(NC(=O)c2cccnc2O)ccc1=O	> 100 µM		
Cn1nc(Cn2ccnc2)c2c1CN(c1ncccn1)C2	> 100 µM		
